{"source": "ChEMBL document CHEMBL5696441", "about": "(Nat Chem Biol, 2011)", "key": {"[1]": {"tested_on": "Tyrosine-protein kinase ABL1 (Homo sapiens), P00519 [M351T]", "experiment": "Inhibition of ABL1 M351T mutant (unknown origin) assessed as remaining activity at 1 uM by Kinome scan method relative to control"}, "[2]": {"target": "Serine/threonine-protein kinase B-raf (Homo sapiens) (UniProt P15056)", "experiment": "Inhibition of BRAF (unknown origin) assessed as remaining activity at 1 uM by Kinome scan method relative to control"}, "[3]": {"target": "Calcium/calmodulin-dependent protein kinase kinase 2 (Homo sapiens) (UniProt Q96RR4)", "sequence (Q96RR4 2-588 limits assumed)": "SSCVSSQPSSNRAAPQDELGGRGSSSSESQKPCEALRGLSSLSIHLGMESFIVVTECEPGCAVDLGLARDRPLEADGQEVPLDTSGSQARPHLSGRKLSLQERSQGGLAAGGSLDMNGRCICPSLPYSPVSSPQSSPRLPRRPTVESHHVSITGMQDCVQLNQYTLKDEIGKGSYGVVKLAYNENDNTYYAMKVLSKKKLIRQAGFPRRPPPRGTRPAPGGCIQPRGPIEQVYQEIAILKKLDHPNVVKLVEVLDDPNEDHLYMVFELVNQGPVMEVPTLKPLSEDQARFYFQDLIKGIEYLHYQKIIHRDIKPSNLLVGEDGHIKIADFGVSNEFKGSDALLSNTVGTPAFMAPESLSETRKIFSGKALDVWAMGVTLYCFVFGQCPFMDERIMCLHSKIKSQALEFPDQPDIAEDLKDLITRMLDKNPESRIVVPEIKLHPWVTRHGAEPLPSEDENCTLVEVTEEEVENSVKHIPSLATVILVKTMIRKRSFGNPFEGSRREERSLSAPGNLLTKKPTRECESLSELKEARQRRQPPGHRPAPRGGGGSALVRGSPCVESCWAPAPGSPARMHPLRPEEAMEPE", "experiment": "Inhibition of CAMKK2 (unknown origin) assessed as remaining activity at 1 uM by Kinome scan method relative to control"}, "[4]": {"target": "Cyclin-dependent kinase-like 2 (Homo sapiens) (UniProt Q92772)", "sequence (Q92772 whole entry)": "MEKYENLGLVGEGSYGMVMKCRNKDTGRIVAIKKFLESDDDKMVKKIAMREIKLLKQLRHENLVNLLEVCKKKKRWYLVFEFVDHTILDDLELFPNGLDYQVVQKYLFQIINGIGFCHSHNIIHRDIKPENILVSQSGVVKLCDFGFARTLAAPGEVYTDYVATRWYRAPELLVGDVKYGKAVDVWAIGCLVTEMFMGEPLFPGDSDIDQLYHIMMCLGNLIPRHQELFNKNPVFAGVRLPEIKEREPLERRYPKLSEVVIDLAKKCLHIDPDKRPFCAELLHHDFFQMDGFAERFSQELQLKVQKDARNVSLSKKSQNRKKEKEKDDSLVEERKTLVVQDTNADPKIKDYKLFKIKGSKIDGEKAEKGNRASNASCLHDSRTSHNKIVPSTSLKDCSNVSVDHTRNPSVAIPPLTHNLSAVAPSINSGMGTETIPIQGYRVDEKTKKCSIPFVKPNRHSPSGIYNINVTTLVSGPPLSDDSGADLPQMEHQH", "experiment": "Inhibition of CDKL2 (unknown origin) assessed as remaining activity at 1 uM by Kinome scan method relative to control"}, "[5]": {"target": "Receptor-type tyrosine-protein kinase FLT3 (Homo sapiens) (UniProt P36888)", "experiment": "Inhibition of FLT3 (unknown origin) assessed as remaining activity at 1 uM by Kinome scan method relative to control"}, "[6]": {"target": "Ribosomal protein S6 kinase alpha-5 (Homo sapiens) (UniProt O75582)", "sequence (O75582 whole entry, looked up, the tested form may be a part)": "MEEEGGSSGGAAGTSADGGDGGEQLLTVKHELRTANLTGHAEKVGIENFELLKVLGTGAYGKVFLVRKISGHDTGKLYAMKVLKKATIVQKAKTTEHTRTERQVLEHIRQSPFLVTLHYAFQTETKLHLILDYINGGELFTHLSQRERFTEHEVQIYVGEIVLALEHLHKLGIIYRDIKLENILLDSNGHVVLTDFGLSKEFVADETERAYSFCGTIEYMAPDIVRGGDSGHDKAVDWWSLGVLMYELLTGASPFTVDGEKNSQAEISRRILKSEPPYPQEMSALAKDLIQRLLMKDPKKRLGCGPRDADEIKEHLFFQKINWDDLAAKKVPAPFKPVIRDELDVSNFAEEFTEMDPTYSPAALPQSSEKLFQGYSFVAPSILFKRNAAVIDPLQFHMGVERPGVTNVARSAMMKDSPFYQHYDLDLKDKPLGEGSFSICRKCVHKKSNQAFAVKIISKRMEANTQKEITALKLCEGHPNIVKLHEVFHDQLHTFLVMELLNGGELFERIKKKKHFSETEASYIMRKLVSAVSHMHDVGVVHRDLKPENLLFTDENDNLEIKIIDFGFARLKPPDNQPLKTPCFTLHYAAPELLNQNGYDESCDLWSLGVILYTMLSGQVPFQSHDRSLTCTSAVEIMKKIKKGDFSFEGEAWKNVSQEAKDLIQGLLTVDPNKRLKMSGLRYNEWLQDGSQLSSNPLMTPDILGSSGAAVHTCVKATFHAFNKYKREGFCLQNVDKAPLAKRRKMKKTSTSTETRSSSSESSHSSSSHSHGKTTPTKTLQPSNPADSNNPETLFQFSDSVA", "experiment": "Inhibition of N-terminal kinase domain RPS6KA5 (unknown origin) assessed as remaining activity at 1 uM by Kinome scan method relative to control"}, "[7]": {"target": "Proto-oncogene tyrosine-protein kinase Src (Homo sapiens) (UniProt P12931)", "sequence (P12931 2-536 limits assumed)": "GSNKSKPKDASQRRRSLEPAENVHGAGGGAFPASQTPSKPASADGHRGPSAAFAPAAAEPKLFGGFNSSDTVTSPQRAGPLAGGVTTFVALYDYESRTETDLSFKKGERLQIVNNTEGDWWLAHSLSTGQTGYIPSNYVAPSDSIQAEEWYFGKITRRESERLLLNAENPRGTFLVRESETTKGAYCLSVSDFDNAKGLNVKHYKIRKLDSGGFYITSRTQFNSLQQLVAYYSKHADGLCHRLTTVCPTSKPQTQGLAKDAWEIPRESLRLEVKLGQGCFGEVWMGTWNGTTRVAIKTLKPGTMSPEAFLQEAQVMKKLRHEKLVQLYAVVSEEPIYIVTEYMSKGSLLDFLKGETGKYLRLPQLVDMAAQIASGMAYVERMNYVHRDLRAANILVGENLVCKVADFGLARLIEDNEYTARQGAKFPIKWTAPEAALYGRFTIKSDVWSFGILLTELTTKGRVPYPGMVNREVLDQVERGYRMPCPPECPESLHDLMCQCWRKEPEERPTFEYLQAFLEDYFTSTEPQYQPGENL", "experiment": "Inhibition of SRC (unknown origin) assessed as remaining activity at 1 uM by Kinome scan method relative to control"}, "[8]": {"target": "T1, Serine/threonine-protein kinase Chk1 (Homo sapiens) (UniProt O14757)", "T1 sequence (whole entry)": "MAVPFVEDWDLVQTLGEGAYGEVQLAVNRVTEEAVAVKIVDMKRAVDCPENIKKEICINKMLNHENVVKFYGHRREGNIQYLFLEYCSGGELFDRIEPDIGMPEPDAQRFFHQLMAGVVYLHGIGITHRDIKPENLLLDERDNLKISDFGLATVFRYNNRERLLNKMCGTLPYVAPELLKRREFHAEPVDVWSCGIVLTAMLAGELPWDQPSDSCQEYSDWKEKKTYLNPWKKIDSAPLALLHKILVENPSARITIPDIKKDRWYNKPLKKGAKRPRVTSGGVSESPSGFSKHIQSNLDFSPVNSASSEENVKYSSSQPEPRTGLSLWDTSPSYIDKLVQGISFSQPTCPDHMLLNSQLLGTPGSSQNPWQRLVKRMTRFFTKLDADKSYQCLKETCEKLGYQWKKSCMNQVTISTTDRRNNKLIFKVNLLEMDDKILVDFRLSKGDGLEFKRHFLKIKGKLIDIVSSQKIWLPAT", "experiment": "Inhibition of human CHK1 assessed as residual activity at 1 uM using RBER-CHKtide as substrate in presence of 33P-ATP by ProQinase assay relative to control"}, "[9]": {"target": "Eukaryotic elongation factor 2 kinase (Homo sapiens) (UniProt O00418)", "sequence (O00418 whole entry)": "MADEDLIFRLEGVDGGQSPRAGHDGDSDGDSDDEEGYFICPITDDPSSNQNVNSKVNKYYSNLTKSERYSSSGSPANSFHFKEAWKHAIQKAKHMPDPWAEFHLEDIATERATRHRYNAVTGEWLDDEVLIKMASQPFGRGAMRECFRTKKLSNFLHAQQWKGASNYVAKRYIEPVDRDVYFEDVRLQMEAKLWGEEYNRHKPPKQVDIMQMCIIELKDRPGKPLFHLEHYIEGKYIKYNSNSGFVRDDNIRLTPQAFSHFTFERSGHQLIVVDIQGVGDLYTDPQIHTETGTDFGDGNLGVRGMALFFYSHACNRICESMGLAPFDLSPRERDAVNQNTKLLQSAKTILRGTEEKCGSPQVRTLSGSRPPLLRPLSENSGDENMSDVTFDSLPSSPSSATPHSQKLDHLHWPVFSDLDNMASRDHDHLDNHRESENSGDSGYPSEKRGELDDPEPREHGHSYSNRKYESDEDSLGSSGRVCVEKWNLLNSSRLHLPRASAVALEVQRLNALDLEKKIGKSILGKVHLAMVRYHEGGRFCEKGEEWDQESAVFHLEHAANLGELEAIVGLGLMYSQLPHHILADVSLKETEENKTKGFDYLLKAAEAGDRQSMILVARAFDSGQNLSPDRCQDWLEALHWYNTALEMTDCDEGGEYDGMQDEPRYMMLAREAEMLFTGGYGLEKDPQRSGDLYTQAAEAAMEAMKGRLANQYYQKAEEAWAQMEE", "experiment": "Inhibition of human EEF2K assessed as residual activity at 1 uM using RBER-GSK3 as substrate in presence of 33P-ATP by ProQinase assay relative to control"}, "[10]": {"tested_on": "Epidermal growth factor receptor (Homo sapiens), P00533 [G719C]", "experiment": "Inhibition of human EGFR G719C mutant assessed as residual activity at 1 uM using PolyEY as substrate in presence of 33P-ATP by ProQinase assay relative to control"}, "[11]": {"tested_on": "Receptor-type tyrosine-protein kinase FLT3 (Homo sapiens), P36888 [D835Y]", "experiment": "Inhibition of human […] mutant assessed as residual activity at 1 uM using Poly(Ala,Glu,Lys,Tyr)6:2:5:1 as substrate in presence of 33P-ATP by ProQinase assay relative to control"}, "[12]": {"target": "T2, Homeodomain-interacting protein kinase 4 (Homo sapiens) (UniProt Q8NE63)", "T2 sequence (whole entry)": "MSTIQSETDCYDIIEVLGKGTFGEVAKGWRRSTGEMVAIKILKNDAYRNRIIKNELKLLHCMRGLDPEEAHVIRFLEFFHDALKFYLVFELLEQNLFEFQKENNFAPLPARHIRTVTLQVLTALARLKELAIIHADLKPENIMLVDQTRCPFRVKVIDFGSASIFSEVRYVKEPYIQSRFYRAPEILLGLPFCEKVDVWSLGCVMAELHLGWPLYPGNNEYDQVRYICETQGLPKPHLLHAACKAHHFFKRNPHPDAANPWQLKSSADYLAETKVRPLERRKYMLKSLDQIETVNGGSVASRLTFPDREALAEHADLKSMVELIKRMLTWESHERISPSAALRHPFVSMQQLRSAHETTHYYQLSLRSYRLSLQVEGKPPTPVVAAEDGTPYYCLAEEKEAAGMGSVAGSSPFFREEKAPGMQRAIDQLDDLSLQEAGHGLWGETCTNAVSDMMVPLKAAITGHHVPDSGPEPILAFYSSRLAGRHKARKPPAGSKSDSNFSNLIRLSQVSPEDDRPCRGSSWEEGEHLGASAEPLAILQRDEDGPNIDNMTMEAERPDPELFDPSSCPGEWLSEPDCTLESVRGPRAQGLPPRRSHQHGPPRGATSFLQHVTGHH", "experiment": "Inhibition of human HIPK4 assessed as residual activity at 1 uM using RBER-IRStide as substrate in presence of 33P-ATP by ProQinase assay relative to control"}, "[13]": {"target": "Tyrosine-protein kinase Lck (Homo sapiens) (UniProt P06239)", "sequence (P06239 2-509 limits assumed)": "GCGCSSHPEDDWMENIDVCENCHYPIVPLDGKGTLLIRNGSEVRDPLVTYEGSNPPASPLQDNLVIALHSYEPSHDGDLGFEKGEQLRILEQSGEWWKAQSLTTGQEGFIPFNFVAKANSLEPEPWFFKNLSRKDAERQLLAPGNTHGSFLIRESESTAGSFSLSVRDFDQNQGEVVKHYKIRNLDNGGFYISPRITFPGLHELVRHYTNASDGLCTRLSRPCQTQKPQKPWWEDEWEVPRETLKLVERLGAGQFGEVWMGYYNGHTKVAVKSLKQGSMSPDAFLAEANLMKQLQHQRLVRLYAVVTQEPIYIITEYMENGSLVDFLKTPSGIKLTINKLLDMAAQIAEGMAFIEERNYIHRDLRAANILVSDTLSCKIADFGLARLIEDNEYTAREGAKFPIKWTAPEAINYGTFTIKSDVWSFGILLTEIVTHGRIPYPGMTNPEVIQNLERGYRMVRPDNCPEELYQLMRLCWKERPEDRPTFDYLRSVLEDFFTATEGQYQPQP", "experiment": "Inhibition of human LCK assessed as residual activity at 1 uM using polyEY as substrate in presence of 33P-ATP by ProQinase assay relative to control"}, "[14]": {"target": "Mitogen-activated protein kinase kinase kinase 9 (Homo sapiens) (UniProt P80192)", "experiment": "Inhibition of human MAP3K9 assessed as residual activity at 1 uM using RBER-GSK3 as substrate in presence of 33P-ATP by ProQinase assay relative to control"}, "[15]": {"target": "Serine/threonine-protein kinase Nek7 (Homo sapiens) (UniProt Q8TDX7)", "sequence (Q8TDX7 whole entry, looked up)": "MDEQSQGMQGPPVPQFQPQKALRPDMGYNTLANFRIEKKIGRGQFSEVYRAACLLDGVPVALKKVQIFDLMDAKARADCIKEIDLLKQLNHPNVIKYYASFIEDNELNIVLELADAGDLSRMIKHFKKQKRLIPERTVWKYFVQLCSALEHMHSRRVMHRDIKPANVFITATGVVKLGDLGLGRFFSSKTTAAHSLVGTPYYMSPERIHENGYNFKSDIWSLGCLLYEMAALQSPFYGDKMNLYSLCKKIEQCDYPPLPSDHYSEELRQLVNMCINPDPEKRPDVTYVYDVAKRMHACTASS", "experiment": "Inhibition of human NEK7 assessed as residual activity at 1 uM using casein as substrate in presence of 33P-ATP by ProQinase assay relative to control"}, "[16]": {"tested_on": "Platelet-derived growth factor receptor alpha (Homo sapiens), P16234 [T674I]", "sequence (P16234 whole entry T674I)": "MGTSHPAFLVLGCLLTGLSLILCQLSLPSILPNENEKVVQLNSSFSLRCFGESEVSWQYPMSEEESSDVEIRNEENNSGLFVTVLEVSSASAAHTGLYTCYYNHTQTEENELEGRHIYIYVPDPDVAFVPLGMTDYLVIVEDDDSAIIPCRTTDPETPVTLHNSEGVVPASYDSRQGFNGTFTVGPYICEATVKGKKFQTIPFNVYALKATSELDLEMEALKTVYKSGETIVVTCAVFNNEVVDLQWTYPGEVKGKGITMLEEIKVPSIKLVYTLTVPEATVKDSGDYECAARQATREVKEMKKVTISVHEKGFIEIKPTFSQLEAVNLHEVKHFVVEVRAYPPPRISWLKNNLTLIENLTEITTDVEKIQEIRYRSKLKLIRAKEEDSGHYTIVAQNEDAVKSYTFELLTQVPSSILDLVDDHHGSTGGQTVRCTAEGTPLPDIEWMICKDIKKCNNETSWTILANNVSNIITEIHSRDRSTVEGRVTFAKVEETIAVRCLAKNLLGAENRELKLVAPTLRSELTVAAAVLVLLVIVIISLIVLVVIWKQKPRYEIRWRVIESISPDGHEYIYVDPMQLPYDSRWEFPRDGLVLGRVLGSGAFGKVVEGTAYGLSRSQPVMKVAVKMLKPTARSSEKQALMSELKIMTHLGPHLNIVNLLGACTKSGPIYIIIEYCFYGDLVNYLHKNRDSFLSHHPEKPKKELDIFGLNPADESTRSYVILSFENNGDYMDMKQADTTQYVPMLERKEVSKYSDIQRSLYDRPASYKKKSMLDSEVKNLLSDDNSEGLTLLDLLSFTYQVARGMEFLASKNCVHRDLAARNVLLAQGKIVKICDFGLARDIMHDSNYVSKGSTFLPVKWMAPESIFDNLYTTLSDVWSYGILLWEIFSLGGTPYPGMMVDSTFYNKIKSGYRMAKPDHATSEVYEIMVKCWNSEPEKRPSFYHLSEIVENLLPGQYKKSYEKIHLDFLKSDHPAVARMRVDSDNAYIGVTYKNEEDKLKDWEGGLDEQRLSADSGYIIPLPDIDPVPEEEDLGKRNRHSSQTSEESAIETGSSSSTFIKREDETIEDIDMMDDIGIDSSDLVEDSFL", "experiment": "Inhibition of human PDGFRalpha T674I mutant assessed as residual activity at 1 uM using Poly(Ala,Glu,Lys,Tyr)6:2:5:1 as substrate in presence of 33P-ATP by ProQinase assay relative to control"}, "[17]": {"experiment": "Anti-inflammatory activity against human derived high respond PBMC cells assessed as inhibition in stimulated IL-5 cytokine release at 10 uM incubated for 2 hrs in the presence of LPS/SEB/aCD28 by Luminex based sandwich immunoassay relative to control", "assay_type": "functional"}, "PBMC": {"tested_on": "PBMC", "experiment": "Anti-inflammatory activity against human derived medium respond PBMC cells assessed as increase in stimulated IL-12p70 cytokine release at 1 uM incubated for 2 hrs in the presence of LPS/SEB/aCD28 by Luminex based sandwich immunoassay", "assay_type": "functional, cell-based"}}, "note": "Calls of active or inactive are those of the source. No cut-off for these calls is given here."}
{"smiles": "O=C1c2ccc(Nc3ccc(F)cc3F)cc2CCc2ccc(OC[C@H](O)CO)cc21", "note": "[Skepinone-L]", "values": [{"measurement": "Activity", "setting": "[1]", "result": 100, "unit": "%"}, {"measurement": "Activity", "setting": "[2]", "result": 100, "unit": "%"}, {"measurement": "Activity", "setting": "[3]", "result": 98, "unit": "%"}, {"measurement": "Activity", "setting": "[4]", "result": 100, "unit": "%"}, {"measurement": "Activity", "setting": "[5]", "result": 97, "unit": "%"}, {"measurement": "Activity", "setting": "[6]", "result": 95, "unit": "%"}, {"measurement": "Activity", "setting": "[7]", "result": 100, "unit": "%"}, {"measurement": "Activity", "setting": "[8]", "result": 94, "unit": "%"}, {"measurement": "Activity", "setting": "[9]", "result": 88, "unit": "%"}, {"measurement": "Activity", "setting": "[10]", "result": 74, "unit": "%"}, {"measurement": "Activity", "setting": "[11]", "result": 101, "unit": "%"}, {"measurement": "Activity", "setting": "[12]", "result": 116, "unit": "%"}, {"measurement": "Activity", "setting": "[13]", "result": 102, "unit": "%"}, {"measurement": "Activity", "setting": "[14]", "result": 90, "unit": "%"}, {"measurement": "Activity", "setting": "[15]", "result": 83, "unit": "%"}, {"measurement": "Activity", "setting": "[16]", "result": 97, "unit": "%"}, {"measurement": "inhibition at 10 µM", "setting": "[17]", "result": 50, "unit": "%"}, {"measurement": "Activity", "setting": "PBMC", "result": "Active"}]}
